Key:
[1] = target: T1, Polyunsaturated fatty acid 5-lipoxygenase (Homo sapiens, UniProt P09917); assay: Inhibition of 5-LOX
T1 sequence (P09917 whole entry): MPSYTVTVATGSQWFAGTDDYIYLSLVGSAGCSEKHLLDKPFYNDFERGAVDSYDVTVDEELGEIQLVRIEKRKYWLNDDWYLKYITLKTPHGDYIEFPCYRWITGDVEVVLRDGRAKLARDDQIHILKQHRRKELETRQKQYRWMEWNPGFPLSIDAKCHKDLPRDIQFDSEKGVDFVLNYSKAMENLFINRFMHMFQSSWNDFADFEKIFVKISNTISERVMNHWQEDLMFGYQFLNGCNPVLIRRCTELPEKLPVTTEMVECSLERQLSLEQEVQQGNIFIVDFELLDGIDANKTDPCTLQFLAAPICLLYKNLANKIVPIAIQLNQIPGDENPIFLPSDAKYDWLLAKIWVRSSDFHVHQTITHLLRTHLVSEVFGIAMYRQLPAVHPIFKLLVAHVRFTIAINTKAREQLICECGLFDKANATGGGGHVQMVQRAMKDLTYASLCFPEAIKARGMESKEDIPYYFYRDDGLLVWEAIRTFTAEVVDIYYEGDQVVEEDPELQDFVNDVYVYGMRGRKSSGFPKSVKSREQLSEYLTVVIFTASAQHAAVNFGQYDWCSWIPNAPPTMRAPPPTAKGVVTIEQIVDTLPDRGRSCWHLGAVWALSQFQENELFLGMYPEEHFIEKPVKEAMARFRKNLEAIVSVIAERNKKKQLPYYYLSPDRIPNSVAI

[2] = target: T2, M-phase inducer phosphatase 1 (Homo sapiens, UniProt P30304); assay: Inhibition of His-tagged Cdc25A expressed in the Escherichia coli BL21(DE3) using p-nitrophenyl phosphate as substrate for 80 mins by spectrophotometry
T2 sequence (P30304 whole entry): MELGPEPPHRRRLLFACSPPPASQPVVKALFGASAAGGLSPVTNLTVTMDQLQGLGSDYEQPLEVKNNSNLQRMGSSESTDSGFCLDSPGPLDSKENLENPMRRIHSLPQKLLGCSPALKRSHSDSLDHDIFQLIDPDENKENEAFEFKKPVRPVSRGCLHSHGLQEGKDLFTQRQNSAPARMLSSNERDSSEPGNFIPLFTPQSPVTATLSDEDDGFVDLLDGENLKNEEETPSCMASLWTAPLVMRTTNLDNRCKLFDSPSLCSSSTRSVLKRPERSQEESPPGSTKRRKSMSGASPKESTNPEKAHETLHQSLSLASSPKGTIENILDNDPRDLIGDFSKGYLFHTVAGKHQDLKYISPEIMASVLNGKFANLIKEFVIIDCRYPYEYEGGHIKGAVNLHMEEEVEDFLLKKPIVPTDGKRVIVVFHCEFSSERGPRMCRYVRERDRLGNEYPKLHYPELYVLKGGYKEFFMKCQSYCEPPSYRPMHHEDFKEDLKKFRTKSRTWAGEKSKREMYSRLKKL

| Structure (SMILES) | IC50 [1] [µM] | IC50 [2] [µM] |
| --- | --- | --- |
| COC1(c2cccc(COc3ccc4ccccc4c3)c2)CCOCC1 | 1.5 |  |
| c1ccc(COc2ccc3ccccc3c2)cc1 | 7.5 |  |
| COC(=O)[C@@H]1[C@H]2C[C@H]3c4[nH]c5ccccc5c4CCN3C[C@@H]2CC[C@@H]1O [YOHIMBINE] |  | 22.3 |
| CC(c1ccc(OCc2ccccc2)cc1)N(O)C(N)=O (centres undefined) | 0.36 |  |

— ChEMBL document CHEMBL2150911, “Charting, navigating, and populating natural product chemical space for drug discovery” (J Med Chem, 2012)
